Results reported in patent US11390604B2 (Hoffmann-La Roche Inc., priority 2019, dated 2022).
Structures can show the parent of a compound that is named as a salt.

tested on: Acinetobacter baumannii ATCC 17961; test: Antimicrobial susceptibility testing: 90% growth inhibitory concentration (IC90) determination; format: cell-based; details: ATCC17961, Acinetobacter baumannii ATCC 17961, Iso-Sensitest broth, read-out: ATCC 17961 IC90
How it was run: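 Broth microdilution in Iso-Sensitest medium, twofold series (e.g. 50 to 0.097 μM final), ~5×10^5 CFU/ml inoculum, 35±2 °C. OD600 read every 20 min over 16 h. IC90 derived from growth inhibition during logarithmic phase.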

Compound	IC90 [nM]
Cn1c(-c2cn(CC3CCC3)nc2C(F)(F)F)cnc1C(=O)Nc1ccc(C(=O)N[C@H]2[C@@H]3CN(C(=O)N[C@@H]4CNC[C@H]4O)C[C@@H]32)c(Cl)c1 [Example 388, (1R,5S,6s)-6-(2-chloro-4-(5-(1-(cyclobutylmethyl)-3-(trifluoromethyl)-1H-pyrazol-4-yl)-1-methyl-1H-imidazole-2-carboxamido)benzamido)-N-((3R,4R)-4-hydroxypyrrolidin-3-yl)-3-azabicyclo[3.1.0]hexane-3-carboxamide formate]	170

same assay, conditions: Acinetobacter baumannii ATCC 17961, Iso-Sensitest broth, read-out: ATCC 17961 IC90

Compound	IC90 [nM]
N-(3-amino-3- methylcyclobutyl)-4-[2-chloro- 4-[[5-[1-cyclopropyl-3- (trifluoromethyl)pyrazol-4-yl]- 1-methylimidazole-2- carbonyl]amino]benzoyl]pipera- zine-1-carboxamide;formic acid [Example 238]	273
N-[4-[4-[(3S)-3-carbonyl]piperazine-1-carbonyl]-3-chlorophenyl]-1-methyl-5-[1-prop-2-ynyl-3-(trifluoromethyl)pyrazol-4-yl]imidazole-2-carboxamide [Example 80]	212
N-[4-[(4-aminocyclohexyl)carbamoyl]-3-chlorophenyl]-1-methyl-5-[3-(trifluoromethyl)-1H-pyrazol-4-yl]imidazole-2-carboxamide;2,2,2-trifluoroacetic acid [Example 123]	3840
formic acid;rac-(1S,5R)-8-[2- chloro-4-[[5-[1-(2,2- difluorocyclopropyl)-3- (trifluoromethyl)pyrazol-4-yl]- 1-methyl-imidazole-2- carbonyl]amino]benzoyl]-N- [rac-(3S,4S)-4- hydroxypyrrolidin-3-yl]-3,8- diazabicyclo[3.2.1]octane-3- carboxamide [Example 377]	497
rac-4-(2-chloro-4-(5-(1- cyclopropyl-3-(trifluoromethyl)- 1H-pyrazol-4-yl)-1-methyl-1H- imidazole-2- carboxamido)benzoyl)-N- ((1s,3s)-3- (methylamino)cyclobutyl)pipera- zine-1-carboxamide formate [Example 256]	313
